Experiments:
[1] = system: salicylate responsive promoter sequence of the PR1 (pathogenesis-related protein I) gene (AT2G14610); assay: Induction of defense gene expression in Arabidopsis thaliana (PR1 promoter-GFP reporter plants); type: in vivo; conditions: 300 ppm, sprayed; 3rd day after spraying; mock treated leaves set as 1.00
Protocol: Arabidopsis thaliana reporter plants containing the coding sequence of a green fluorescent protein (GFP) linked to the salicylate responsive promoter sequence of the PR1 (pathogenesis-related protein I) gene (AT2G14610) were grown for five days and then sprayed with compounds. On the 3rd day after spraying, plant fluorescence was assessed with a MacroFluo instrument from Leica Microsystems (Wetzlar, Germany). Fluorescences were quantified with the Meta-Morph Microscopy Automation & Image Analysis Software (Molecular Devices, Sunnyvale, Calif., United States).
Background fluorescence in mock treated leaves was set as 1.00.

[2] = system: Xanthomonas campestris pv. campestris; assay: In vivo preventive test on Xanthomonas campestris pv. campestris (black rot on cabbage); conditions: 31 ppm, cabbage plants sprayed 72 hours before inoculation; evaluated 8 or 10 days after inoculation
Protocol: The tested active ingredients were prepared by homogenization in a mixture of acetone/Dimethyl sulfoxide/Tween®, and then diluted with water to obtain the desired active material concentration.
The young plants of cabbage were treated by spraying the active ingredient prepared as described above.
Control plants were treated only with an aqueous solution of acetone/Dimethyl sulfoxide/Tween®.
After 72 hours, the plants were contaminated by spraying the leaves with an aqueous bacteria suspension of Xanthomonas campestris pv. campestris. The contaminated cabbage plants were incubated for 8 or 10 days at 27° C. at 95% relative humidity.
The test was evaluated 8 or 10 days after the inoculation. 0% means an efficacy which corresponds to that of the control plants while an efficacy of 100% means that no disease was observed.

Compound `O=C(O)c1ccccc1O` [Salicylic acid] has a relative fluorescence value [1] of 2.70.

Compound `O=C(NC1(C(=O)O)CC1)c1cc(Br)c(Br)s1` [CMP1] has an efficacy [2] of 10%.

`O=C(NC1(C(=O)O)CC1)c1sc(Br)c(Br)c1Br` [I.14] was tested, and the efficacy [2] was “at least 80%”.

Reference: patent US20220274945A1, “SUBSTITUTED THIOPHENE CARBOXAMIDES AND DERIVATIVES THEREOF AS MICROBICIDES” (Bayer Aktiengesellschaft, priority 2019, published 2022)
